Test results taken from PMC9186362, “Design and biological evaluation of substituted 5,7-dihydro-6H-indolo[2,3-c]quinolin-6-one as novel selective Haspin inhibitors” (Journal of Enzyme Inhibition and Medicinal Chemistry, 2022).

Legend:
[1] = target: RnDYRK1A (Rattus norvegicus, UniProt Q63470); assay: ADP-Glo kinase assay; assay type: biochemical, Rattus norvegicus (Rn)
Method: Kinase activities were determined using the ADP-Glo methodology (ADP-Glo Kinase Assay; Promega) according to the assay described by Nguyen et al.[32] except for MmCLK1. The later was assayed in the following buffer: 10 mM MgCl2, 1 mM EGTA, 1 mM DTT, 25 mM Tris-HCl pH 7.5, 50 µg/ml heparin, 0.15 mg/ml BSA, with 0.027 µg/µl of the following peptide: GRSRSRSRSRSR as substrate.

[2] = target: CAMK2A (CaMKII alpha) (Homo sapiens, UniProt Q9UQM7); assay: SelectScreen ZLYTE; assay type: biochemical; conditions: ATP Km, read-out: Percentage of inhibition
Method: (§1) We further evaluated the selectivity profile of compound 55 on a larger panel of kinases (SelectScreen Whole Panel, Life Technologies). The inhibition profile of 55, evaluated at 1 μM, is depicted on a dendrogram on Figure 3 where kinases inhibited by a minimum of 80% are shown. A full list of the kinases tested is shown on Table S1 in supplementary information.

[3] = target: T1, PIM2 (Homo sapiens, UniProt Q9P1W9); assay: SelectScreen ZLYTE; assay type: biochemical; conditions: ATP Km, read-out: Percentage of inhibition
T1 construct: purchased Life Technologies (SelectScreen Whole Panel service)
T1 sequence (Q9P1W9 whole entry): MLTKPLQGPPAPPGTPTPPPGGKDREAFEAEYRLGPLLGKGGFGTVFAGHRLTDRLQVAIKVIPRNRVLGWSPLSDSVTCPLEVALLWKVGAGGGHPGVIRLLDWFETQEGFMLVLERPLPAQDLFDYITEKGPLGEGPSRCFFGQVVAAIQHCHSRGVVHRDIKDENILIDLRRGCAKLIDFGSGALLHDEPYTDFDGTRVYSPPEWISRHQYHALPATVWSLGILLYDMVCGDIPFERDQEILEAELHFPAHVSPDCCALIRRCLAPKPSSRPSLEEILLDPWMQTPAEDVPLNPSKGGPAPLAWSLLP
Method: as §1

[4] = target: AKT2 (PKB beta) (Homo sapiens, UniProt P31751); assay: SelectScreen ZLYTE; assay type: biochemical; conditions: ATP Km, read-out: Percentage of inhibition
Method: as §1

[5] = target: T2, PRKCN (PKD3) (Homo sapiens, UniProt O94806); assay: SelectScreen ZLYTE; assay type: biochemical; conditions: ATP Km, read-out: Percentage of inhibition
T2 construct: purchased Life Technologies
Method: as §1

[6] = target: T3, FES (FPS) (Homo sapiens, UniProt P07332); assay: SelectScreen ZLYTE; assay type: biochemical; conditions: ATP Km, read-out: Percentage of inhibition
T3 construct: purchased Life Technologies (SelectScreen service)
Method: as §1

[7] = target: T4, RET (Homo sapiens, UniProt P07949); assay: SelectScreen ZLYTE; assay type: biochemical; conditions: ATP Km, read-out: Percentage of inhibition
T4 construct: purchased Life Technologies
Method: as §1

[8] = target: T5, FYN (Homo sapiens, UniProt P06241); assay: SelectScreen ZLYTE; assay type: biochemical; conditions: ATP Km, read-out: Percentage of inhibition
T5 construct: purchased Life Technologies (SelectScreen Whole Panel)
Method: as §1

[9] = target: T6, FGFR2 (Homo sapiens, UniProt P21802); assay: SelectScreen ZLYTE; assay type: biochemical; conditions: ATP Km, read-out: Percentage of inhibition
T6 construct: purchased Life Technologies
Method: as §1

[10] = target: YES1 (Homo sapiens, UniProt P07947); assay: SelectScreen ZLYTE; assay type: biochemical; conditions: ATP Km, read-out: Percentage of inhibition
Method: as §1

[11] = target: T7, CAMK4 (CaMKIV) (Homo sapiens, UniProt Q16566); assay: SelectScreen ZLYTE; assay type: biochemical; conditions: ATP Km, read-out: Percentage of inhibition
T7 construct: purchased Life Technologies
Method: as §1

[12] = target: T8, MAP4K2 (GCK) (Homo sapiens, UniProt Q12851); assay: SelectScreen ZLYTE; assay type: biochemical; conditions: ATP Km, read-out: Percentage of inhibition
T8 construct: purchased Life Technologies (SelectScreen Whole Panel service)
Method: as §1

[13] = target: T9, EPHA4 (Homo sapiens, UniProt P54764); assay: SelectScreen ZLYTE; assay type: biochemical; conditions: ATP Km, read-out: Percentage of inhibition
T9 construct: purchased Life Technologies (SelectScreen)
T9 sequence (P54764 20-986): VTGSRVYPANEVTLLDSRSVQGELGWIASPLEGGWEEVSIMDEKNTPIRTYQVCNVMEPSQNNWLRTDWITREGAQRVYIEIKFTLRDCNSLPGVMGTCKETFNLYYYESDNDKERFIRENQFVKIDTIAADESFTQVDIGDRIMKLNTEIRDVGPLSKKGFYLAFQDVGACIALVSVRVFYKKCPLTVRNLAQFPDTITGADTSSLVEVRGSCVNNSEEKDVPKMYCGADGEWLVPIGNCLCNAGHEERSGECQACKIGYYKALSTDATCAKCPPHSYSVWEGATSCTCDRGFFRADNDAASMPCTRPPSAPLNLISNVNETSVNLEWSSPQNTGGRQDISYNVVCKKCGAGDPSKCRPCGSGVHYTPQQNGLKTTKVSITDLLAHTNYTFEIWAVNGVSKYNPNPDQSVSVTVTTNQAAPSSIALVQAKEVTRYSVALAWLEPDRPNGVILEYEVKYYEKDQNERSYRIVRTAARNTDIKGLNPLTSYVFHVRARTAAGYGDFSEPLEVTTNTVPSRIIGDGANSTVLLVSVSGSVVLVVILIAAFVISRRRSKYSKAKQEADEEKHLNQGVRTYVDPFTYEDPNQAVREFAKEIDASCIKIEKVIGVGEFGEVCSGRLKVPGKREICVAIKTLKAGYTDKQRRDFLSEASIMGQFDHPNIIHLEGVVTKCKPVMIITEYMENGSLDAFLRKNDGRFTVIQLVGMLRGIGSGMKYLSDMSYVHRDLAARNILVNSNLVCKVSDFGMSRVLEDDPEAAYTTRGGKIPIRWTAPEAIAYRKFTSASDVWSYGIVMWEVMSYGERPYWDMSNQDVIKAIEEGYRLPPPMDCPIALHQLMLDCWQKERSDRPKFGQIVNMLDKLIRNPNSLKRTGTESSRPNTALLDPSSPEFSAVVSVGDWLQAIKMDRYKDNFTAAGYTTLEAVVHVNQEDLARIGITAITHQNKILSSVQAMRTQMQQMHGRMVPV
Method: as §1

[14] = target: T10, MERTK (Homo sapiens, UniProt Q12866); assay: SelectScreen ZLYTE; assay type: biochemical; conditions: ATP Km, read-out: Percentage of inhibition
T10 construct: purchased Life Technologies (SelectScreen Whole Panel service)
Method: as §1

[15] = target: T11, CDKL5 (Homo sapiens, UniProt O76039); assay: SelectScreen ZLYTE; assay type: biochemical; conditions: ATP Km, read-out: Percentage of inhibition
T11 construct: purchased Life Technologies
Method: as §1

[16] = target: T12, STK3 (MST2) (Homo sapiens, UniProt Q13188); assay: SelectScreen ZLYTE; assay type: biochemical; conditions: ATP Km, read-out: Percentage of inhibition
T12 construct: purchased Life Technologies (SelectScreen Whole Panel)
Method: as §1

[17] = target: T13, PAK7 (KIAA1264) (Homo sapiens, UniProt Q9P286); assay: SelectScreen ZLYTE; assay type: biochemical; conditions: ATP Km, read-out: Percentage of inhibition
T13 construct: purchased Life Technologies (SelectScreen)
T13 sequence (Q9P286 whole entry): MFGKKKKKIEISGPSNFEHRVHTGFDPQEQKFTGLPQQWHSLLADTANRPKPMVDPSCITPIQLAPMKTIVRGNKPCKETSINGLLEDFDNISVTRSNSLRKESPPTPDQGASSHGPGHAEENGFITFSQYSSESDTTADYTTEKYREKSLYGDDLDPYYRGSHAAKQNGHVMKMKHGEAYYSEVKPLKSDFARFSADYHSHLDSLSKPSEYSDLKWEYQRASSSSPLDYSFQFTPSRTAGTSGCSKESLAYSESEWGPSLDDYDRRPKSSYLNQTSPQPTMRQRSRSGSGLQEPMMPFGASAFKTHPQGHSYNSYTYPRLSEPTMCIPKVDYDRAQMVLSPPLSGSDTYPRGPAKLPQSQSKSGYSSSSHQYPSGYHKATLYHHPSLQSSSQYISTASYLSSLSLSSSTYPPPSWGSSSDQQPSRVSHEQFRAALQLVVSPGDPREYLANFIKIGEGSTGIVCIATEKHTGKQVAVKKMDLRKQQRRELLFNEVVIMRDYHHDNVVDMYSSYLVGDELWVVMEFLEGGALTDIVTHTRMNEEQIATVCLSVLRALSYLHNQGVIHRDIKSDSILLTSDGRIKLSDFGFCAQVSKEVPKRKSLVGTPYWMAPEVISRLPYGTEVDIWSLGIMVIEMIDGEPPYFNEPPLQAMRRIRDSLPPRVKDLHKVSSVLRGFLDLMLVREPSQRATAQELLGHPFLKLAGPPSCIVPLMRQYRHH
Method: as §1

[18] = target: T14, PLK3 (Homo sapiens, UniProt Q9H4B4); assay: SelectScreen ZLYTE; assay type: biochemical; conditions: ATP Km, read-out: Percentage of inhibition
T14 construct: purchased Life Technologies (SelectScreen service)
T14 sequence (Q9H4B4 whole entry): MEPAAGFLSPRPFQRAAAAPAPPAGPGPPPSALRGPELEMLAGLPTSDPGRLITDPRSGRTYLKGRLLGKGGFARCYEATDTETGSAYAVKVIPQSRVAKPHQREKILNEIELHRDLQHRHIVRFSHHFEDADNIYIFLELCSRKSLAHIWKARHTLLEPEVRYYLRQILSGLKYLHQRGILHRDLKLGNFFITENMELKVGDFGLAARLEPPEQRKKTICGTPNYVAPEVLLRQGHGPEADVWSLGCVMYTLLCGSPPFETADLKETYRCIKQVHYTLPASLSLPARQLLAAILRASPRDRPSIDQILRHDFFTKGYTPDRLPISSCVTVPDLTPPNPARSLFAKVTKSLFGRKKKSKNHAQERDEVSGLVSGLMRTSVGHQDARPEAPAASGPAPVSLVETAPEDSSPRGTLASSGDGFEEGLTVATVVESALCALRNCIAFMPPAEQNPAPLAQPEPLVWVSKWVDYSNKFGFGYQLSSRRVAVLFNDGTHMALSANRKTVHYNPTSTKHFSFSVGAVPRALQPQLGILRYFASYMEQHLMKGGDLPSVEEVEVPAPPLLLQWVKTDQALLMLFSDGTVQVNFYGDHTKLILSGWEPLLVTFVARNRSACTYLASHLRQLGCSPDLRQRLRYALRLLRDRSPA
Method: as §1

[19] = target: PRKCA (PKC alpha) (Homo sapiens, UniProt P17252); assay: SelectScreen ZLYTE; assay type: biochemical; conditions: ATP Km, read-out: Percentage of inhibition
Method: as §1

[20] = target: T15, HCK (Homo sapiens, UniProt P08631); assay: SelectScreen ZLYTE; assay type: biochemical; conditions: ATP Km, read-out: Percentage of inhibition
T15 construct: purchased Life Technologies
Method: as §1

[21] = target: T16, RPS6KA1 (RSK1) (Homo sapiens, UniProt Q15418); assay: SelectScreen ZLYTE; assay type: biochemical; conditions: ATP Km, read-out: Percentage of inhibition
T16 construct: purchased Life Technologies (SelectScreen service)
Method: as §1

[22] = target: T17, ABL2 (Arg) (Homo sapiens, UniProt P42684); assay: SelectScreen ZLYTE; assay type: biochemical; conditions: ATP Km, read-out: Percentage of inhibition
T17 construct: purchased Life Technologies (SelectScreen service)
Method: as §1

[23] = target: T18, EGFR (ErbB1) L858R (Homo sapiens, UniProt P00533, L858R); assay: SelectScreen ZLYTE; assay type: biochemical; conditions: ATP Km, read-out: Percentage of inhibition
T18 construct: purchased Life Technologies (SelectScreen Whole Panel)
Method: as §1

[24] = target: T19, DYRK3 (Homo sapiens, UniProt O43781); assay: SelectScreen ZLYTE; assay type: biochemical; conditions: ATP Km, read-out: Percentage of inhibition
T19 construct: purchased Life Technologies (SelectScreen service)
T19 sequence (O43781 whole entry): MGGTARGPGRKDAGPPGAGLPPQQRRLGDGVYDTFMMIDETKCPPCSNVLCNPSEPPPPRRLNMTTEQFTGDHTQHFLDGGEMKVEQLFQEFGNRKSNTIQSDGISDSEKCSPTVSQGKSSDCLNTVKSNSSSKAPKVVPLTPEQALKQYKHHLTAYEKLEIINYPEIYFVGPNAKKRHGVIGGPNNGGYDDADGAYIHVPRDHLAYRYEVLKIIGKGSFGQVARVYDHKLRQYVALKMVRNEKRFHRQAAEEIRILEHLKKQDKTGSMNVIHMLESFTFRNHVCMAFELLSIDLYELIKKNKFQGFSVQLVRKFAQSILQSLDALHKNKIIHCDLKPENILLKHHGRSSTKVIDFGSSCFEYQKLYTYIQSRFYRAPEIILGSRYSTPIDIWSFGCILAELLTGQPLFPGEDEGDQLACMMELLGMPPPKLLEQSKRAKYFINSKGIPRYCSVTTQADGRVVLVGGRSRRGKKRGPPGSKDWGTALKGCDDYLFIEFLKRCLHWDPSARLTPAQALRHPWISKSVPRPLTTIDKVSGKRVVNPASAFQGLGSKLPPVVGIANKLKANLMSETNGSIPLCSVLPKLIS
Method: as §1

[25] = target: T20, JAK3 (Homo sapiens, UniProt P52333); assay: SelectScreen ZLYTE; assay type: biochemical; conditions: ATP Km, read-out: Percentage of inhibition
T20 construct: purchased Life Technologies (SelectScreen service)
T20 sequence (P52333 whole entry): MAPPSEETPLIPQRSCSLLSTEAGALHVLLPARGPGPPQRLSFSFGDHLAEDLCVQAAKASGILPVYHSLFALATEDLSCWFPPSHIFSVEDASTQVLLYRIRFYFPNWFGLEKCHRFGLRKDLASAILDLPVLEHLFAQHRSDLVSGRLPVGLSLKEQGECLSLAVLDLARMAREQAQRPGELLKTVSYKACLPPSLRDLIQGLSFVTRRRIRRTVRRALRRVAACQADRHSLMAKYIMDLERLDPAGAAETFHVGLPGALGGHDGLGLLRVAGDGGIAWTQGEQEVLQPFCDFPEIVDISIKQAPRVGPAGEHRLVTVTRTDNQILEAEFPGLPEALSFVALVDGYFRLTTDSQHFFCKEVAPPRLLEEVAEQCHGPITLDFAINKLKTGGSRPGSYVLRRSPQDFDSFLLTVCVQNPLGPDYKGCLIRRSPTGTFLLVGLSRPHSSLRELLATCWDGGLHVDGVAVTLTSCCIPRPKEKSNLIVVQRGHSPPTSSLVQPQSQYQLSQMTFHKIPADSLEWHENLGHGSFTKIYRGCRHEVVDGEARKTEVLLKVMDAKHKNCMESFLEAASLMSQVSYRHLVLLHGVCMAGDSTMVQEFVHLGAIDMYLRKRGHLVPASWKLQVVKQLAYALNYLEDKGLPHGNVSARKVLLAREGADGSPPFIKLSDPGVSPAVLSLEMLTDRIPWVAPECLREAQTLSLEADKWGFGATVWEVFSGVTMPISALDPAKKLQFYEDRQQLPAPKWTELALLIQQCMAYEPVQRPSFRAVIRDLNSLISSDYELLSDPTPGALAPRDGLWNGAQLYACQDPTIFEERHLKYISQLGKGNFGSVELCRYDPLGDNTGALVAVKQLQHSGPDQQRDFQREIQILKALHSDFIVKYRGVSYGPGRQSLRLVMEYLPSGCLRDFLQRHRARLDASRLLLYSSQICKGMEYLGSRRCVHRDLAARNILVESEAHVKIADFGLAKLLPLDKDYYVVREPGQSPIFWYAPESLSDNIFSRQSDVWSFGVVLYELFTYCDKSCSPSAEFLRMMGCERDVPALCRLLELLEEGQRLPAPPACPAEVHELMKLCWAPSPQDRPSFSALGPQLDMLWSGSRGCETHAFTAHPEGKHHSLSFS
Method: as §1

[26] = target: T21, MARK1 (MARK) (Homo sapiens, UniProt Q9P0L2); assay: SelectScreen ZLYTE; assay type: biochemical; conditions: ATP Km, read-out: Percentage of inhibition
T21 construct: purchased Life Technologies (SelectScreen)
Method: as §1

[27] = target: T22, EGFR (ErbB1) L861Q (Homo sapiens, UniProt P00533, L861Q); assay: SelectScreen ZLYTE; assay type: biochemical; conditions: ATP Km, read-out: Percentage of inhibition
T22 construct: purchased Life Technologies (SelectScreen)
Method: as §1

[28] = target: SRPK2 (Homo sapiens, UniProt P78362); assay: SelectScreen ZLYTE; assay type: biochemical; conditions: ATP Km, read-out: Percentage of inhibition
Method: as §1

[29] = target: T23, GRK7 (Homo sapiens, UniProt Q8WTQ7); assay: SelectScreen ZLYTE; assay type: biochemical; conditions: ATP Km, read-out: Percentage of inhibition
T23 construct: purchased Life Technologies (SelectScreen service)
Method: as §1

[30] = target: T24, RET S891A (Homo sapiens, UniProt P07949, S891A); assay: SelectScreen ZLYTE; assay type: biochemical; conditions: ATP Km, read-out: Percentage of inhibition
T24 construct: purchased Life Technologies
Method: as §1

[31] = target: T25, RET V804L (Homo sapiens, UniProt P07949, V804L); assay: SelectScreen ZLYTE; assay type: biochemical; conditions: ATP Km, read-out: Percentage of inhibition
T25 construct: purchased Life Technologies
Method: as §1

[32] = target: T26, CDK2/cyclin A (Homo sapiens, UniProt P24941); assay: SelectScreen ZLYTE; assay type: biochemical; conditions: ATP Km, read-out: Percentage of inhibition
T26 construct: purchased Life Technologies
Method: as §1

[33] = target: MET (cMet) (Homo sapiens, UniProt P08581); assay: SelectScreen ZLYTE; assay type: biochemical; conditions: ATP Km, read-out: Percentage of inhibition
Method: as §1

[34] = target: T27, MARK4 (Homo sapiens, UniProt Q96L34); assay: SelectScreen ZLYTE; assay type: biochemical; conditions: ATP Km, read-out: Percentage of inhibition
T27 construct: purchased Life Technologies
Method: as §1

[35] = target: T28, FLT3 D835Y (Homo sapiens, UniProt P36888, D835Y); assay: SelectScreen ZLYTE; assay type: biochemical; conditions: ATP Km, read-out: Percentage of inhibition
T28 construct: purchased Life Technologies (SelectScreen Whole Panel)
Method: as §1

With `COc1ccc2[nH]c3c(=O)[nH]c4ccc(O)cc4c3c2c1` [Compound 55, 2-Hydroxy-10-methoxy-5,7-dihydro-6H-indolo[2,3-c]quinolin-6-one] the “Selectivity index DYRK/Haspin” value ([1]; IC50 DYRK1A/IC50 Haspin) was 65, the IC50 ([1]; dose-response curve, each point in duplicate, read-out: Kinase inhibition (IC50) DYRK1A) was 130 nM and the remaining activity ([1]; mean n = 2, % of maximum activity of DMSO control, read-out: % Residual activity at 1 μM DYRK1A) was 2%. For the same molecule, the inhibition at 1 µM [2] was 20%, the inhibition at 1 µM [3] was 18% and the inhibition at 1 µM [4] was 6%. For the same molecule, the inhibition at 1 µM [5] was 40%, the inhibition at 1 µM [6] was 25% and the inhibition at 1 µM [7] was 97%. The inhibition at 1 µM [8] was 49%, the inhibition at 1 µM [9] was 42% and the inhibition at 1 µM [10] was 61%. It also gave an inhibition at 1 µM [11] of 41%, an inhibition at 1 µM [12] of 47% and an inhibition at 1 µM [13] of 7%. For the same molecule, the inhibition at 1 µM [14] was 44%, the inhibition at 1 µM [15] was 5% and the inhibition at 1 µM [16] was 99%. It also gave an inhibition at 1 µM [17] of 8%, an inhibition at 1 µM [18] of 25% and an inhibition at 1 µM [19] of 14%. For the same molecule, the inhibition at 1 µM [20] was 38%, the inhibition at 1 µM [21] was 89% and the inhibition at 1 µM [22] was 24%. It also gave an inhibition at 1 µM [23] of -1%, an inhibition at 1 µM [24] of 86% and an inhibition at 1 µM [25] of 79%. For the same molecule, the inhibition at 1 µM [26] was 9%, the inhibition at 1 µM [27] was 9% and the inhibition at 1 µM [28] was 6%. It also gave an inhibition at 1 µM [29] of 74%, an inhibition at 1 µM [30] of 96% and an inhibition at 1 µM [31] of 98%. It also gave an inhibition at 1 µM [32] of 34%, an inhibition at 1 µM [33] of 7% and an inhibition at 1 µM [34] of 31%. It also gave an inhibition at 1 µM [35] of 100%.
